Measured values published in PMC5218480 (PLoS ONE, 2017).

System: MV-4-11 cells
Test: Gene expression microarray analysis (Affymetrix PrimeView) and GSEA
Assay type: cell-based, human
Set-up: RFU PODN (11730768_x_at) / Fold change /veh PODN (11730768_x_at) / RFU LINC00158 (11744669_a_at) / Fold change /veh LINC00158 (11744669_a_at) / RFU DUSP10 (11751237_a_at) / Fold change /veh DUSP10 (11751237_a_at) / RFU ID3 (11757404_x_at) / Fold change /veh ID3 (11757404_x_at) / RFU PLEKHG5 (11737974_s_at) / Fold change /veh PLEKHG5 (11737974_s_at) / RFU LRRC4B (11730491_at) / Fold change /veh LRRC4B (11730491_at) / RFU GIMAP4 (11747438_a_at) / Fold change /veh GIMAP4 (11747438_a_at) / RFU KRT8 (11758183_x_at) / Fold change /veh KRT8 (11758183_x_at) / RFU CNN1 (11734310_a_at) / Fold change /veh CNN1 (11734310_a_at) / RFU VPS37D (11726825_at) / Fold change /veh VPS37D (11726825_at) / RFU C10orf10 (11716522_x_at) / Fold change /veh C10orf10 (11716522_x_at) / RFU KIR2DL2 /// KIR2DL4 /// KIR2DL5A /// KIR2DL5B /// KIR2DS1 /// KIR2DS2 /// KIR2DS3 /// KIR2DS4 /// KIR3DL3 /// KIR3DL3 /// KIR3DS1 (11738374_at) / Fold change /veh KIR2DL2 /// KIR2DL4 /// KIR2DL5A /// KIR2DL5B /// KIR2DS1 /// KIR2DS2 /// KIR2DS3 /// KIR2DS4 /// KIR3DL3 /// KIR3DL3 /// KIR3DS1 (11738374_at) / RFU C1QL1 (11718748_at) / Fold change /veh C1QL1 (11718748_at) / RFU TMPRSS4 (11747572_a_at) / Fold change /veh TMPRSS4 (11747572_a_at) / RFU HAMP (11756126_x_at) / Fold change /veh HAMP (11756126_x_at) / RFU RNFT2 (11725882_a_at) / Fold change /veh RNFT2 (11725882_a_at) / RFU NR4A2 (11747474_a_at) / Fold change /veh NR4A2 (11747474_a_at) / RFU ABCC12 (11746883_a_at) / Fold change /veh ABCC12 (11746883_a_at) / RFU TMEM136 (11760407_x_at) / Fold change /veh TMEM136 (11760407_x_at) / RFU CLDN22 /// WWC2 (11732394_at) / Fold change /veh CLDN22 /// WWC2 (11732394_at) / RFU HLA-DPB1 (11760878_x_at) / Fold change /veh HLA-DPB1 (11760878_x_at) / RFU SPINT1 (11716480_a_at) / Fold change /veh SPINT1 (11716480_a_at) / RFU GAP43 (11754022_s_at) / Fold change /veh GAP43 (11754022_s_at) / RFU A4GNT (11735810_at) / Fold change /veh A4GNT (11735810_at) / RFU PRB3 (11715151_x_at) / Fold change /veh PRB3 (11715151_x_at) / RFU TUBB4B (11761932_at) / Fold change /veh TUBB4B (11761932_at) / RFU CAPN14 (11732068_a_at) / Fold change /veh CAPN14 (11732068_a_at) / RFU TMCC2 (11721928_a_at) / Fold change /veh TMCC2 (11721928_a_at) / RFU IRGQ (11745062_a_at) / Fold change /veh IRGQ (11745062_a_at) / RFU FAM174B (11720279_a_at) / Fold change /veh FAM174B (11720279_a_at) / RFU TMPRSS4 (11748680_a_at) / Fold change /veh TMPRSS4 (11748680_a_at) / RFU FAM212B (11763350_a_at) / Fold change /veh FAM212B (11763350_a_at) / RFU PLEKHG5 (11743358_a_at) / Fold change /veh PLEKHG5 (11743358_a_at) / RFU ZSCAN30 (11745921_a_at) / Fold change /veh ZSCAN30 (11745921_a_at) / RFU CMKLR1 (11741424_a_at) / Fold change /veh CMKLR1 (11741424_a_at) / RFU LOC101060620 /// MAPK8IP1 (11723275_at) / Fold change /veh LOC101060620 /// MAPK8IP1 (11723275_at) / RFU SPTSSB (11747773_x_at) / Fold change /veh SPTSSB (11747773_x_at) / RFU PRSS12 (11739890_at) / Fold change /veh PRSS12 (11739890_at) / RFU BIN1 (11741810_x_at) / Fold change /veh BIN1 (11741810_x_at) / RFU WNT11 (11732464_a_at) / Fold change /veh WNT11 (11732464_a_at) / RFU C10orf10 (11716521_a_at) / Fold change /veh C10orf10 (11716521_a_at) / RFU C5orf56 (11738089_at) / Fold change /veh C5orf56 (11738089_at) / RFU CYB561 (11721691_x_at) / Fold change /veh CYB561 (11721691_x_at) / RFU ANKRD19P (11752326_a_at) / Fold change /veh ANKRD19P (11752326_a_at) / RFU OR2T12 /// OR2T33 /// OR2T8 (11738714_s_at) / Fold change /veh OR2T12 /// OR2T33 /// OR2T8 (11738714_s_at) / RFU VCAN (11748164_a_at) / Fold change /veh VCAN (11748164_a_at) / RFU JSRP1 (11732532_at) / Fold change /veh JSRP1 (11732532_at) / RFU KRTAP10-11 (11738290_x_at) / Fold change /veh KRTAP10-11 (11738290_x_at) / RFU MYO3A (11730013_a_at) / Fold change /veh MYO3A (11730013_a_at) / RFU EBF3 (11725865_a_at) / Fold change /veh EBF3 (11725865_a_at) / RFU CAMK2N1 (11719241_x_at) / Fold change /veh CAMK2N1 (11719241_x_at) / RFU C5orf56 (11738088_a_at) / Fold change /veh C5orf56 (11738088_a_at) / RFU OLFML3 (11715873_a_at) / Fold change /veh OLFML3 (11715873_a_at) / RFU LOC100653217 /// NTM (11731650_a_at) / Fold change /veh LOC100653217 /// NTM (11731650_a_at) / RFU MAPK11 (11762145_a_at) / Fold change /veh MAPK11 (11762145_a_at) / RFU FIZ1 (11724087_x_at) / Fold change /veh FIZ1 (11724087_x_at) / RFU OASL (11726364_x_at) / Fold change /veh OASL (11726364_x_at) / RFU SOX15 (11748057_x_at) / Fold change /veh SOX15 (11748057_x_at) / RFU CD79A (11719716_a_at) / Fold change /veh CD79A (11719716_a_at) / RFU HIST1H1D (11736915_at) / Fold change /veh HIST1H1D (11736915_at) / RFU CASKIN2 (11723855_a_at) / Fold change /veh CASKIN2 (11723855_a_at) / RFU LOC730098 (11760151_x_at) / Fold change /veh LOC730098 (11760151_x_at) / RFU OR4N2 (11742367_at) / Fold change /veh OR4N2 (11742367_at) / RFU PRRT2 (11749266_a_at) / Fold change /veh PRRT2 (11749266_a_at) / RFU SNX32 (11753110_a_at) / Fold change /veh SNX32 (11753110_a_at) / RFU CDHR5 (11726645_a_at) / Fold change /veh CDHR5 (11726645_a_at) / RFU RCAN1 (11760418_a_at) / Fold change /veh RCAN1 (11760418_a_at) / RFU FAM167A (11723789_a_at) / Fold change /veh FAM167A (11723789_a_at) / RFU FAM26E (11764081_at) / Fold change /veh FAM26E (11764081_at) / RFU ISYNA1 (11749810_s_at) / Fold change /veh ISYNA1 (11749810_s_at) / RFU ACY1 (11761880_at) / Fold change /veh ACY1 (11761880_at) / RFU 11764098_at / Fold change /veh 11764098_at / RFU SAMD14 (11745864_x_at) / Fold change /veh SAMD14 (11745864_x_at) / RFU NPB (11741838_a_at) / Fold change /veh NPB (11741838_a_at) / RFU TMPRSS6 (11731388_a_at) / Fold change /veh TMPRSS6 (11731388_a_at) / RFU KRTAP10-2 (11738614_at) / Fold change /veh KRTAP10-2 (11738614_at) / RFU ARHGAP8 /// PRR5-ARHGAP8 (11727945_x_at) / Fold change /veh ARHGAP8 /// PRR5-ARHGAP8 (11727945_x_at) / RFU KRTAP5-7 /// NADSYN1 (11734609_at) / Fold change /veh KRTAP5-7 /// NADSYN1 (11734609_at) / RFU RASL12 (11751679_a_at) / Fold change /veh RASL12 (11751679_a_at) / RFU CDKN2B (11736163_a_at) / Fold change /veh CDKN2B (11736163_a_at) / RFU PRF1 (11729649_at) / Fold change /veh PRF1 (11729649_at) / RFU, ZNF638 /// ZNF638-IT1 / Fold change vs veh, ZNF638 /// ZNF638-IT1 / RFU, PANK3 / Fold change vs veh, PANK3 / RFU, SH3YL1 / Fold change vs veh, SH3YL1 / RFU, ZEB2 / Fold change vs veh, ZEB2 / RFU, NRIP1 / Fold change vs veh, NRIP1 / RFU, PTTG1IP / Fold change vs veh, PTTG1IP / RFU, CAPN2 / Fold change vs veh, CAPN2 / RFU, MED14 / Fold change vs veh, MED14 / RFU, SNORA58 / Fold change vs veh, SNORA58 / RFU, C1orf63 / Fold change vs veh, C1orf63 / RFU, LRRFIP1 / Fold change vs veh, LRRFIP1 / RFU, NDUFAF7 / Fold change vs veh, NDUFAF7 / RFU, SLC12A2 / Fold change vs veh, SLC12A2 / RFU, IBTK / Fold change vs veh, IBTK / RFU, ESF1 / Fold change vs veh, ESF1 / Fold change vs veh, TMEM50B / RFU, TAOK1 / Fold change vs veh, TAOK1 / RFU, ACBD3 / Fold change vs veh, ACBD3 / RFU, TMA16 / Fold change vs veh, TMA16 / RFU, RWDD3 / Fold change vs veh, RWDD3 / RFU, BCAT1 / Fold change vs veh, BCAT1 / RFU, EDEM3 / Fold change vs veh, EDEM3 / RFU, TMEM33 / Fold change vs veh, TMEM33 / RFU, WDR75 / Fold change vs veh, WDR75 / RFU, AHCTF1 / Fold change vs veh, AHCTF1 / RFU, TFRC / Fold change vs veh, TFRC / RFU, ZDHHC17 / Fold change vs veh, ZDHHC17 / RFU, NOM1 / Fold change vs veh, NOM1 / RFU, ARL8B / Fold change vs veh, ARL8B / RFU, ZBTB11 / Fold change vs veh, ZBTB11 / RFU, TAMM41 / Fold change vs veh, TAMM41 / RFU, KIAA1704 /// LOC100996395 / Fold change vs veh, KIAA1704 /// LOC100996395 / RFU, ING1 / Fold change vs veh, ING1 / RFU, TRMT61B / Fold change vs veh, TRMT61B / RFU, FUBP3 / Fold change vs veh, FUBP3 / RFU, TP53 / Fold change vs veh, TP53 / RFU, TNKS2 / Fold change vs veh, TNKS2 / RFU, ZFP14 / Fold change vs veh, ZFP14 / RFU, ACTR2 / Fold change vs veh, ACTR2 / RFU, PPP3R1 / Fold change vs veh, PPP3R1 / RFU, PIK3R1 / Fold change vs veh, PIK3R1 / RFU, HNRNPA1 / Fold change vs veh, HNRNPA1 / RFU, RNF170 / Fold change vs veh, RNF170 / RFU, ZNF28 / Fold change vs veh, ZNF28 / RFU, RNGTT / Fold change vs veh, RNGTT / RFU, OGT / Fold change vs veh, OGT / RFU, BRD1 / Fold change vs veh, BRD1 / RFU, MARS / Fold change vs veh, MARS / RFU, ZNF655 / Fold change vs veh, ZNF655 / RFU, FAHD1 / Fold change vs veh, FAHD1 / RFU, BDP1 / Fold change vs veh, BDP1 / RFU, LRRCC1 / Fold change vs veh, LRRCC1 / RFU, ARID1A / Fold change vs veh, ARID1A / RFU, ZNF146 / Fold change vs veh, ZNF146 / RFU, ZNF330 / Fold change vs veh, ZNF330 / RFU, GPN3 / Fold change vs veh, GPN3 / RFU, C9orf123 / Fold change vs veh, C9orf123 / RFU, N4BP2L2 / Fold change vs veh, N4BP2L2 / RFU, ARFIP1 / Fold change vs veh, ARFIP1 / RFU, FAM179B / Fold change vs veh, FAM179B / RFU, BCL10 / Fold change vs veh, BCL10 / RFU, UHRF1BP1L / Fold change vs veh, UHRF1BP1L / RFU, BET1 / Fold change vs veh, BET1 / RFU, CNOT2 / Fold change vs veh, CNOT2 / RFU, ZNF268 / Fold change vs veh, ZNF268 / Fold change vs veh, ZNF507 / RFU, DGCR2 / Fold change vs veh, DGCR2 / RFU, WDSUB1 / Fold change vs veh, WDSUB1 / Fold change vs veh, HSP90B1 /// MIR3652 / RFU, ADSS / Fold change vs veh, ADSS / RFU, GK / Fold change vs veh, GK / RFU, ZNF148 / Fold change vs veh, ZNF148 / RFU, TAF9 / Fold change vs veh, TAF9 / RFU, SLC1A5 / Fold change vs veh, SLC1A5 / RFU, SLMO2 / Fold change vs veh, SLMO2 / RFU, ABCC4 / Fold change vs veh, ABCC4 / RFU, LOC101060439 /// RAP1B / Fold change vs veh, LOC101060439 /// RAP1B / RFU, RFX7 / Fold change vs veh, RFX7 / RFU, GTPBP10 / Fold change vs veh, GTPBP10 / RFU, CNEP1R1 / Fold change vs veh, CNEP1R1 / RFU, BIVM-ERCC5 /// ERCC5 / Fold change vs veh, BIVM-ERCC5 /// ERCC5 / RFU, ILF3 / Fold change vs veh, ILF3 / RFU 11762660_at / Fold change /veh 11762660_at / RFU VCAN (11757783_s_at) / Fold change /veh VCAN (11757783_s_at) / RFU DDX43 (11728927_at) / Fold change /veh DDX43 (11728927_at) / RFU KRT8 (11758188_x_at) / Fold change /veh KRT8 (11758188_x_at) / RFU NKD1 (11759106_at) / Fold change /veh NKD1 (11759106_at) / RFU SRD5A1 (11742802_a_at) / Fold change /veh SRD5A1 (11742802_a_at) / RFU TPSAB1 /// TPSB2 (11721975_s_at) / Fold change /veh TPSAB1 /// TPSB2 (11721975_s_at) / RFU GSTM3 (11746129_a_at) / Fold change /veh GSTM3 (11746129_a_at) / RFU IL23R (11737362_x_at) / Fold change /veh IL23R (11737362_x_at) / RFU TMEM51 (11727254_a_at) / Fold change /veh TMEM51 (11727254_a_at) / RFU PIWIL2 (11732686_x_at) / Fold change /veh PIWIL2 (11732686_x_at) / RFU ORM1 (11744905_x_at) / Fold change /veh ORM1 (11744905_x_at) / RFU CCDC152 (11743942_at) / Fold change /veh CCDC152 (11743942_at) / RFU ECM1 (11717891_a_at) / Fold change /veh ECM1 (11717891_a_at) / RFU IL23R (11748794_a_at) / Fold change /veh IL23R (11748794_a_at) / RFU TNFAIP8L3 (11732012_x_at) / Fold change /veh TNFAIP8L3 (11732012_x_at) / RFU MBOAT4 (11741988_at) / Fold change /veh MBOAT4 (11741988_at) / RFU 11764193_at / Fold change /veh 11764193_at / RFU TMEM53 (11763286_at) / Fold change /veh TMEM53 (11763286_at) / RFU MAGEB2 (11727129_at) / Fold change /veh MAGEB2 (11727129_at) / RFU TMEM200A (11744735_a_at) / Fold change /veh TMEM200A (11744735_a_at) / RFU CCDC152 (11751479_a_at) / Fold change /veh CCDC152 (11751479_a_at) / RFU FAM211A (11726209_a_at) / Fold change /veh FAM211A (11726209_a_at) / RFU RGS16 (11746705_a_at) / Fold change /veh RGS16 (11746705_a_at) / RFU VCAN (11755009_s_at) / Fold change /veh VCAN (11755009_s_at) / RFU RHOB (11743442_s_at) / Fold change /veh RHOB (11743442_s_at) / RFU RGS16 (11720943_a_at) / Fold change /veh RGS16 (11720943_a_at) / RFU RGS16 (11720944_at) / Fold change /veh RGS16 (11720944_at) / RFU, VPS4B / Fold change vs veh, VPS4B / RFU, CREB1 / Fold change vs veh, CREB1 / RFU, DNAJC13 / Fold change vs veh, DNAJC13 / RFU, GNAQ / Fold change vs veh, GNAQ / RFU, CDK5R1 / Fold change vs veh, CDK5R1 / RFU, ZRANB3 / Fold change vs veh, ZRANB3 / RFU, CUL4A / Fold change vs veh, CUL4A / RFU, CCNY / Fold change vs veh, CCNY / RFU, UFL1 / Fold change vs veh, UFL1 / RFU, COG3 / Fold change vs veh, COG3 / RFU, DIAPH2 / Fold change vs veh, DIAPH2 / RFU, SKA2 / Fold change vs veh, SKA2 / RFU, AFF3 / Fold change vs veh, AFF3 / RFU, LMF1 / Fold change vs veh, LMF1 / RFU, IPO11 / Fold change vs veh, IPO11 / RFU, DFFB / Fold change vs veh, DFFB / RFU, FOXP1 / Fold change vs veh, FOXP1 / RFU, CARD8 / Fold change vs veh, CARD8 / RFU, STRN3 / Fold change vs veh, STRN3 / RFU, ADK / Fold change vs veh, ADK / RFU, RASSF2 / Fold change vs veh, RASSF2 / RFU, WIPF1 / Fold change vs veh, WIPF1 / RFU, LARP1B / Fold change vs veh, LARP1B / RFU, RASA1 / Fold change vs veh, RASA1 / RFU, RB1 / Fold change vs veh, RB1 / RFU, PPFIA1 / Fold change vs veh, PPFIA1 / RFU, MAT2A / Fold change vs veh, MAT2A / RFU, CCT5 / Fold change vs veh, CCT5 / RFU, WDR92 / Fold change vs veh, WDR92 / RFU, CUX1 / Fold change vs veh, CUX1 / RFU, TTC7A / Fold change vs veh, TTC7A / RFU, TMEM135 / Fold change vs veh, TMEM135 / RFU, DEPTOR / Fold change vs veh, DEPTOR / RFU, CPM / Fold change vs veh, CPM / RFU, DNAJB6 / Fold change vs veh, DNAJB6 / RFU, CACNA2D3 / Fold change vs veh, CACNA2D3 / RFU, DTX4 / Fold change vs veh, DTX4 / RFU, TFCP2 / Fold change vs veh, TFCP2 / RFU, GMCL1 /// GMCL1P1 / Fold change vs veh, GMCL1 /// GMCL1P1 / RFU, AEBP2 / Fold change vs veh, AEBP2 / RFU, SNHG1 /// SNORD22 /// SNORD25 /// SNORD26 /// SNORD27 /// SNORD28 /// SNORD29 /// SNORD31 / Fold change vs veh, SNHG1 /// SNORD22 /// SNORD25 /// SNORD26 /// SNORD27 /// SNORD28 /// SNORD29 /// SNORD31 / Fold change (Aza/veh), C12orf56 (ProbeSet 11735607_a_at) / Fold change (ACY-1035/veh), C12orf56 (ProbeSet 11735607_a_at) / Fold change (Aza/veh), FGFR1OP (ProbeSet 11751329_s_at) / Fold change (ACY-1035/veh), FGFR1OP (ProbeSet 11751329_s_at) / Fold change (Aza/veh), VPS36 (ProbeSet 11739960_a_at) / Fold change (ACY-1035/veh), VPS36 (ProbeSet 11739960_a_at) / RFU SYPL1 (11715823_x_at) / Fold change /veh SYPL1 (11715823_x_at) / RFU IGFBP7 (11715501_s_at) / Fold change /veh IGFBP7 (11715501_s_at) / RFU REEP3 (11722064_at) / Fold change /veh REEP3 (11722064_at) / RFU IGLL1 (11728026_x_at) / Fold change /veh IGLL1 (11728026_x_at): dose or concentration left out as unconfirmed
Settings: ProbeSet 11733831_s_at; LIST D

Nc1ncn([C@@H]2O[C@H](CO)[C@@H](O)[C@H]2O)c(=O)n1 [azacitidine]
Fold change vs veh, GMCL1 /// GMCL1P1: 0.81
